According to article doi:10.1101/2021.11.30.469594v1 (biorxiv, 2021):
Like-named read-outs stand apart in the source and are kept apart here.

Molecular target: PRPK/TPRKB complex (also PRPK/PRPKB; PRPK aka TP53RK) (Homo sapiens, UniProt Q96S44)
Assay: ITC
Type: binding

Chain of PRPK/TPRKB complex (also PRPK/PRPKB; PRPK aka TP53RK) (Q96S44 whole entry, other chains not shown): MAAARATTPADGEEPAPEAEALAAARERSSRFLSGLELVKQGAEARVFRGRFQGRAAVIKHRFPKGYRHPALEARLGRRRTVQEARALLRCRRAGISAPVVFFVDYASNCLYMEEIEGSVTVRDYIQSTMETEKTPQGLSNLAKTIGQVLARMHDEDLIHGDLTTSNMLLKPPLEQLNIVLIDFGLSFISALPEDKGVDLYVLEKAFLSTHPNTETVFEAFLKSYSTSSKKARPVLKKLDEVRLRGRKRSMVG

Row | SMILES | Kd [µM] | other results
1 | Nc1ccc2c(c1)C(=O)N(C1CCC(=O)NC1=O)C2=O (centres unmarked) [Compound2, 5-amino-2-(2,6-dioxopiperidin-3-yl)isoindoline-1,3-dione] | 6.1 ± 0.5 | 
2 | C[C@@]1(N2C(=O)c3cccc(O)c3C2=O)CCC(=O)NC1=O [DB-A5, (R)-4-hydroxy-2-(3-methyl-2,6-dioxopiperidin-3-yl)isoindoline-1,3-dione] |  | Kd (pH […] °C, […] DMSO, crystal structure solved here, ATP site): 1.8 ± 0.4 µM
3 | COc1cccc2c1C(=O)N([C@]1(C)CCC(=O)NC1=O)C2=O [DB-A5-OMe, (R)-4-methoxy-2-(3-methyl-2,6-dioxopiperidin-3-yl)isoindoline-1,3-dione] | > 1000 | 
4 | C[C@]1(N2C(=O)c3cccc(O)c3C2=O)CCC(=O)NC1=O [DB-B5, (S)-4-hydroxy-2-(3-methyl-2,6-dioxopiperidin-3-yl)isoindoline-1,3-dione] |  | Kd (pH […] °C, […] DMSO): 27 µM
5 | O=C1CCC(N2C(=O)c3cccc(O)c3C2=O)C(=O)N1 (centres unmarked) [TXM-01-027-1, 2-(2,6-dioxopiperidin-3-yl)-4-hydroxyisoindoline-1,3-dione] | 2.2 | 
